From patent US20140004209A1, “AUTOPHAGY INDUCER AND INHIBITOR COMBINATION THERAPY FOR THE TREATMENT OF NEOPLASMS” (GENENTECH, INC., priority 2010, published 2014)
Entries after “also recorded” stand apart in the source; their conditions may differ. Where two headings read alike, the source gives them in different places.

Tests used:
[1] = Cell death in combination with CQ (FIG. 17); type: cell-based
[2] = tested on: PC3 cells; assay: Microarray analysis of autophagy gene expression in PC3 cells; type: cell-based, human; conditions: 1 or 5 μM for 6 or 24 hours, normalized to DMSO
Protocol: PC3 cells were induced to express shRNA to indicated Akt isoforms for 72 hours by Doxycycline, RNA was extracted from both Dox treated (Dox+) or untreated control (Dox−) cells. Microarray analysis was carried out using Affymetrix chips. Ratios of the expression levels of each autophagy gene from Dox+ and Dox− samples are shown. Data are mean values from 3 independent experiments.
RNA was extracted from the cells. Microarray analysis was carried out using Affymetrix chips. Expression levels of each autophagy gene are normalized to the DMSO controls. Data are mean values from 3 independent experiments.

[3] = tested on: MDA-MB-231 (Kras, Braf, p53 mut, Triple- and Basal) cell line; assay: CellTiter-Glo growth inhibition, III-4 and CQ combination; type: cell-based
Text: (§1) FIG. 26B depicts the CI (combination index) by using bar graphs for data obtained by CellTiter-Glo assay at day 4 of treatment with 10% serum.

[4] = tested on: multiple cell lines; assay: ED50 of CQ, AKTi and combination by CellTiter-Glo in multiple cell lines; type: cell-based; conditions: day 4, 10% serum
Text: as §1

[5] = tested on: U87MG (PTEN-, PI3K mut (1391M)) cell line; assay: CellTiter-Glo growth inhibition, III-4 and CQ combination; type: cell-based, human; conditions: 1:1.5 ratio
Protocol: as §1
FIGS. 30A-B depicts data for the U87MG (PTEN-, PI3K mut (1391M)) cell line.

[6] = tested on: MDA-361.1 (PI2-K mut (E545K), Her2+, HR+ and Luminal) cell line; assay: as above; type: cell-based; conditions: 1:12.5 ratio
Text: as §1
FIGS. 28A-B depicts data for the MDA-361.1 (PI2-K mut (E545K), Her2+, HR+ and Luminal) cell line.

[7] = tested on: PC3 (PTEN-, p53- and Al) cell line; assay: as above; type: cell-based, human; conditions: 1:25 ratio
Text: as §1
FIGS. 27A-B depicts data for the PC3 (PTEN-, p53- and Al) cell line.

[8] = molecular target: class III PI3K (Homo sapiens, UniProt Q8NEB9); conditions: cited from earlier work
[9] = tested on: PC3 cells; assay: Autophagy markers in PC3 cells (EM AVs, GFP-LC3, LC3-II/LC3-I, MDC, AO); type: cell-based, human
Protocol: Western blot analysis, immunofluorescence, 1HC and TUNEL assay: For Western blot analysis, total protein lysates were subjected to SDS-PAGE and transferred to nitrocellulose. […] Detection and quantification were performed using an Odyssey infrared scanner (LICOR) using the manufacturer's software. For immunofluorescence staining, cells were fixed in 3% paraformaldehyde and permeabilized with 0.01% digitonin in PBS, followed by a rabbit polyclonal anti-LC3 (Abgent) primary antibody detected with a cy3-conjugated anti-rabbit secondary antibody (Jackson Immunoresearch). For IHC, formalin-fixed, paraffin-embedded specimens were collected. 5-μm-thick paraffin-embedded sections were stained using an anti-Ki-67 (MIB-1, DakoCytomation) antibody with the Dako ARK kit (Dako Corporation). Tissues were counterstained with haematoxylin, dehydrated, and mounted. In all cases, antigen retrieval was performed with the Dako Target Retrieval Kit as per manufacturer's instructions. For TUNEL assay, formalin-fixed, paraffin-embedded sections were stained using an in situ cell death detection kit (POD; Roche Diagnostic) according to the manufacturer's instructions.
Ultrathin sections were stained with uranyl acetate and lead citrate. Numbers of AV were counted on systematically sampled cytoplasmic areas of 4.5 μm^2 (n≧64 per condition). The percent AV area was measured by means of a square mesh grid laid over ≧5 sets of systematically sampled micrographs with each set covering a cytoplasmic area ≧80 μm^2. The average percent of apoptotic nuclei in tumor tissues was calculated from the number of apoptotic nuclei in 3 to 4 sets of 100 systematically counted tumor cell nuclei.
Multispectral imaging flow cytometry: Cells treated with various agents were stained with Acridine Orange and analyzed by the ImageStream system (Amnis Corporation, Seattle, Wash.) using the IDEAS image analysis program. The DNA AOGreen image and the vacuolar AO Red image were first compensated into separate channels, and then the percentage of apoptotic/anucleate cells (based on AO nuclear morphology and intensity) and vacuolated cells (AO Red+) were quantified. […] AORed Intensity is plotted on the second histogram with an arbitrary gate (R5) drawn to include events with the brightest AO Red intensity.

[10] = tested on: class I PI3Ks and mTOR; conditions: cited from earlier work
[11] = tested on: PC3 cells; assay: PC3 cell viability and cell death (PI exclusion, annexin V, caspase-3/7); type: cell-based, human; conditions: 0.5 μM III-5, 10 μM CQ, 0.5% FBS
Protocol: Cell viability and cell cycle analysis. Cell number and viability was measured using trypan blue exclusion assay using a Vi-Cell Analyzer (Beckman Coulter), or labeled with 1 μg/ml PI in PBS/1% BSA followed by cytofluorometric analysis with a fluorescence-activated cell sorter (FACS) (Becton Dickinson). FITC-conjugated Annexin V was used for the assessment of phosphatidylserine exposure by FACS analysis. Caspase activation was analyzed using a Caspase-Glo 3/7 Assay kit (Promega). For cell cycle analysis, cells were fixed with drop-wise addition of chilled 70% ethanol, washed with PBS and resuspended in staining solution containing 50 μg/ml PI and 60 units of RNAse A. DNA content was analyzed by flow cytometry using the FlowJo and ModFit software (Becton Dickinson).

Sequence of class III PI3K (Q8NEB9 whole entry): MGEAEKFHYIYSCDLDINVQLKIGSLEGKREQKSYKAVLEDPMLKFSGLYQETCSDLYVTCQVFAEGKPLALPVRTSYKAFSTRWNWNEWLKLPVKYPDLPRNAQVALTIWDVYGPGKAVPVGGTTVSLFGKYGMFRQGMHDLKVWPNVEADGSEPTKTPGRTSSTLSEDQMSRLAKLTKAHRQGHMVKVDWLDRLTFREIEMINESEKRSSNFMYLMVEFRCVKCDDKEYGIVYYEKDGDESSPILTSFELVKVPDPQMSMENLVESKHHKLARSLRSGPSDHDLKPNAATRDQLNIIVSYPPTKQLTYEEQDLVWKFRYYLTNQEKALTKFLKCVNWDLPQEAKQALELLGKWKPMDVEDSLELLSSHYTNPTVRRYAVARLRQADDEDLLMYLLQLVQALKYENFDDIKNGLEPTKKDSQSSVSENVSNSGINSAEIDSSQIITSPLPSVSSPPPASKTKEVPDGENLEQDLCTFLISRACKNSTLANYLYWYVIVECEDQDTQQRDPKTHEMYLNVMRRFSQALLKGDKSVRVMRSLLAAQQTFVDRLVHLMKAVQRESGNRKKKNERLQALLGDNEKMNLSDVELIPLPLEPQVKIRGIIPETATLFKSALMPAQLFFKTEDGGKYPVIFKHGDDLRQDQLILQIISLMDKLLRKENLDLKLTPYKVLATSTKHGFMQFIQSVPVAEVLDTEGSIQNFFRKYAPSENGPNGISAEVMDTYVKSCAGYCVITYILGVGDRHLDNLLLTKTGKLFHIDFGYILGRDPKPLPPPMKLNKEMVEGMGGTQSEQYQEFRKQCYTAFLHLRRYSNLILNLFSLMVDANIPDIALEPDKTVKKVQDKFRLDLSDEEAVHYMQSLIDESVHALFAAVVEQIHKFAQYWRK

Compound	interaction with CQ on cell death [1]	autophagy gene expression [2]	growth inhibition, III-4 and CQ combination vs single agents [3]	ED50 of combination with CQ vs single agents [4]	growth inhibition, III-4 and CQ combination vs single agents [5]	growth inhibition, III-4 and CQ combination vs single agents [6]	growth inhibition, III-4 and CQ combination vs single agents [7]	more potent on class I than class III PI3K [8]	less potent on the class III PI3K ([8]; relative to class I PI3Ks and mTOR)	induction of AV accumulation / autophagy, agent alone [9]	MDC+ vacuoles, III-5 in combination with CQ ([9]; 0.5 μM III-5, 10 μM CQ, 48 h)	induction of AV accumulation / autophagy, agent alone ([9]; listed as PI-103)	inhibition of the class I PI3Ks and mTOR [10]	cell death, III-5 (PI-103) in combination with CQ [11]	cell death, III-5 (PI-103) in combination with CQ ([11]; listed as PI-103)
CC(C)NC[C@@H](C(=O)N1CCN(c2ncnc3c2[C@H](C)C[C@H]3O)CC1)c1ccc(Cl)cc1 [III-4, (S)-2-(4-chlorophenyl)-1-(4-((5R,7R)-7-hydroxy-5-methyl-6,7-dihydro-5H-cyclopenta[d]pyrimidin-4-yl)piperazin-1-yl)-3-(isopropylamino)propan-1-one]	synergize with CQ to accelerate cell death	induce autophagy gene expression	the combination inhibits growth in the cell line at lower concentrations of III-4 than either III-4 alone or CQ alone	significantly lowers the ED50 for both the AKTi and CQ	the combination inhibits growth in the cell line at lower concentrations of III-4 than either III-4 alone or CQ alone	the combination inhibits growth in the cell line at lower concentrations of III-4 than either III-4 alone or CQ alone	the combination inhibits growth in the cell line at lower concentrations of III-4 than either III-4 alone or CQ alone	–	–	–	–	–	–	–	–
Oc1cccc(-c2nc(N3CCOCC3)c3oc4ncccc4c3n2)c1 [III-5]	–	–	–	–	–	–	–	1,000 ×	> 1,000 fold	potent at inducing the accumulation of AVs	CQ dramatically increased the size and number of MDC+ vacuoles	induced overt autophagy	nanomolar concentrations	CQ accelerated cell death in combination with III-5; also recorded: combination with CQ accelerated the death of cells	significantly accelerated death rate
